Columns and labels:
Assay in all cases: relative viability (nuclei count vs DMSO), 5 days (fraction); higher = more cells survive
[1] = system: NCI-H23
How it was run: (§1)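 Values are medians from duplicate plates. Each reflects relative viability, defined as the nuclei count of treated wells over that of vehicle wells. Lung cancer cell lines in 1536-well plates were pin-tool dosed one day after seeding with one drug alone or with a fixed anchor-drug dose plus five library-drug doses (not always all listed) in √10 steps, then fixed, stained and imaged at 4× after 5 days.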

[2] = system: NCI-H1793
How it was run: as §1

[3] = system: LCLC-103H
How it was run: as §1

[4] = system: NCI-H2347
How it was run: as §1

[5] = system: PC-3 [JPC-3]
How it was run: as §1

[6] = system: NCI-H727
How it was run: as §1

[7] = system: NCI-H2228
How it was run: as §1

[8] = system: SW 1573
How it was run: as §1

[9] = system: LCLC-97TM1
How it was run: as §1

[10] = system: NCI-H1650
How it was run: as §1

[11] = system: 201T
How it was run: as §1

[12] = system: HCC-44
How it was run: as §1

[13] = system: LU99A
How it was run: as §1

[14] = system: A-427
How it was run: as §1

[15] = system: NCI-H596
How it was run: as §1

[16] = system: PC-14
How it was run: as §1

[17] = system: SW 900
How it was run: as §1

[18] = system: COR-L23
How it was run: as §1

[19] = system: LC-2-ad
How it was run: as §1

[20] = system: LK-2
How it was run: as §1

[21] = system: H3255
How it was run: as §1

[22] = system: NCI-H460
How it was run: as §1

SMILES: O=c1cc(-c2cccc3c2Sc2ccccc2S3)oc(N2CCOCC2)c1 + CC(=O)Nc1cccc(-n2c(=O)n(C3CC3)c(=O)c3c(Nc4ccc(I)cc4F)n(C)c(=O)c(C)c32)c1 [Trametinib] (partner 0.02 µM)
- relative viability ([1]; first compound 0.08 µM): 0.334
- relative viability ([1]; first compound 0.253 µM): 0.418
- relative viability ([1]; first compound 0.8 µM): 0.349
- relative viability ([1]; first compound 2.53 µM): 0.313
- relative viability ([1]; first compound 8 µM): 0.317
- relative viability ([2]; first compound 0.08 µM): 0.262
- relative viability ([2]; first compound 0.253 µM): 0.458
- relative viability ([2]; first compound 0.8 µM): 0.448
- relative viability ([2]; first compound 2.53 µM): 0.376
- relative viability ([2]; first compound 8 µM): 0.346
- relative viability ([3]; first compound 0.08 µM): 0.698
- relative viability ([3]; first compound 0.253 µM): 0.713
- relative viability ([3]; first compound 0.8 µM): 0.631
- relative viability ([3]; first compound 2.53 µM): 0.662
- relative viability ([3]; first compound 8 µM): 0.623
- relative viability ([4]; first compound 0.08 µM): 0.283
- relative viability ([4]; first compound 0.253 µM): 0.266
- relative viability ([4]; first compound 0.8 µM): 0.264
- relative viability ([4]; first compound 2.53 µM): 0.27
- relative viability ([4]; first compound 8 µM): 0.295
- relative viability ([5]; first compound 0.08 µM): 0.542
- relative viability ([5]; first compound 0.253 µM): 0.732
- relative viability ([5]; first compound 0.8 µM): 0.53
- relative viability ([5]; first compound 2.53 µM): 0.617
- relative viability ([5]; first compound 8 µM): 0.673
- relative viability ([6]; first compound 0.08 µM): 0.367
- relative viability ([6]; first compound 0.253 µM): 0.37
- relative viability ([6]; first compound 2.53 µM): 0.311
- relative viability ([6]; first compound 8 µM): 0.389
- relative viability ([7]; first compound 0.08 µM): 0.554
- relative viability ([7]; first compound 0.253 µM): 0.72
- relative viability ([7]; first compound 0.8 µM): 0.582
- relative viability ([7]; first compound 2.53 µM): 0.416
- relative viability ([7]; first compound 8 µM): 0.447
- relative viability ([8]; first compound 0.08 µM): 0.597
- relative viability ([8]; first compound 0.253 µM): 0.691
- relative viability ([8]; first compound 0.8 µM): 0.575
- relative viability ([8]; first compound 2.53 µM): 0.574
- relative viability ([8]; first compound 8 µM): 0.554
- relative viability ([9]; first compound 0.08 µM): 0.204
- relative viability ([9]; first compound 0.253 µM): 0.196
- relative viability ([9]; first compound 0.8 µM): 0.175
- relative viability ([9]; first compound 2.53 µM): 0.186
- relative viability ([9]; first compound 8 µM): 0.181
- relative viability ([10]; first compound 0.08 µM): 0.516
- relative viability ([10]; first compound 0.253 µM): 0.648
- relative viability ([10]; first compound 0.8 µM): 0.503
- relative viability ([10]; first compound 2.53 µM): 0.497
- relative viability ([10]; first compound 8 µM): 0.622
- relative viability ([11]; first compound 0.08 µM): 0.722
- relative viability ([11]; first compound 0.253 µM): 0.735
- relative viability ([11]; first compound 0.8 µM): 0.727
- relative viability ([11]; first compound 2.53 µM): 0.673
- relative viability ([11]; first compound 8 µM): 0.686
- relative viability ([12]; first compound 0.08 µM): 0.993
- relative viability ([12]; first compound 0.253 µM): 1.01
- relative viability ([12]; first compound 0.8 µM): 0.985
- relative viability ([12]; first compound 2.53 µM): 1.01
- relative viability ([12]; first compound 8 µM): 1.07
- relative viability ([13]; first compound 0.08 µM): 0.531
- relative viability ([13]; first compound 0.253 µM): 0.624
- relative viability ([13]; first compound 0.8 µM): 0.553
- relative viability ([13]; first compound 2.53 µM): 0.538
- relative viability ([13]; first compound 8 µM): 0.52
- relative viability ([14]; first compound 0.08 µM): 0.718
- relative viability ([14]; first compound 0.253 µM): 0.867
- relative viability ([14]; first compound 0.8 µM): 0.735
- relative viability ([14]; first compound 2.53 µM): 0.709
- relative viability ([14]; first compound 8 µM): 0.747
- relative viability ([15]; first compound 0.08 µM): 0.819
- relative viability ([15]; first compound 0.253 µM): 0.925
- relative viability ([15]; first compound 0.8 µM): 0.823
- relative viability ([15]; first compound 2.53 µM): 0.934
- relative viability ([15]; first compound 8 µM): 0.801
- relative viability ([16]; first compound 0.08 µM): 0.748
- relative viability ([16]; first compound 0.253 µM): 0.828
- relative viability ([16]; first compound 0.8 µM): 0.728
- relative viability ([16]; first compound 2.53 µM): 0.827
- relative viability ([16]; first compound 8 µM): 0.718
- relative viability ([17]; first compound 0.253 µM): 0.93
- relative viability ([17]; first compound 0.8 µM): 0.777
- relative viability ([17]; first compound 2.53 µM): 0.814
- relative viability ([17]; first compound 8 µM): 0.816
- relative viability ([18]; first compound 0.08 µM): 0.593
- relative viability ([18]; first compound 0.253 µM): 0.689
- relative viability ([18]; first compound 0.8 µM): 0.51
- relative viability ([18]; first compound 2.53 µM): 0.592
- relative viability ([18]; first compound 8 µM): 0.689
- relative viability ([19]; first compound 0.08 µM): 0.882
- relative viability ([19]; first compound 0.253 µM): 0.967
- relative viability ([19]; first compound 0.8 µM): 0.93
- relative viability ([19]; first compound 2.53 µM): 0.858
- relative viability ([19]; first compound 8 µM): 0.858
- relative viability ([20]; first compound 0.08 µM): 0.874
- relative viability ([20]; first compound 0.253 µM): 0.852
- relative viability ([20]; first compound 0.8 µM): 0.755
- relative viability ([20]; first compound 2.53 µM): 0.712
- relative viability ([20]; first compound 8 µM): 1.03
- relative viability ([21]; first compound 0.08 µM): 0.725
- relative viability ([21]; first compound 0.253 µM): 0.588
- relative viability ([21]; first compound 0.8 µM): 0.681
- relative viability ([21]; first compound 2.53 µM): 0.543
- relative viability ([21]; first compound 8 µM): 0.561
- relative viability ([22]; first compound 0.08 µM): 0.147
- relative viability ([22]; first compound 0.253 µM): 0.163
- relative viability ([22]; first compound 0.8 µM): 0.113
- relative viability ([22]; first compound 2.53 µM): 0.091
- relative viability ([22]; first compound 8 µM): 0.1

From the supplement of paper PMC10307832
